{"source": "patent US7547690B2", "about": "“Compounds for the treatment of Hepatitis C” (Bristol-Myers Squibb Company, priority 2007, dated 2009)", "key": {"HCV NS5B": {"target": "T1, HCV NS5B (Hepatitis C virus genotype 1b, UniProt Q9WMX2)", "T1 construct": "The protein was expressed with an 18 amino acid C-terminal truncation to enhance the solubility; made in house; host or cells: E. coli BL21(DE3)", "T1 sequence (Q9WMX2 2420-2992)": "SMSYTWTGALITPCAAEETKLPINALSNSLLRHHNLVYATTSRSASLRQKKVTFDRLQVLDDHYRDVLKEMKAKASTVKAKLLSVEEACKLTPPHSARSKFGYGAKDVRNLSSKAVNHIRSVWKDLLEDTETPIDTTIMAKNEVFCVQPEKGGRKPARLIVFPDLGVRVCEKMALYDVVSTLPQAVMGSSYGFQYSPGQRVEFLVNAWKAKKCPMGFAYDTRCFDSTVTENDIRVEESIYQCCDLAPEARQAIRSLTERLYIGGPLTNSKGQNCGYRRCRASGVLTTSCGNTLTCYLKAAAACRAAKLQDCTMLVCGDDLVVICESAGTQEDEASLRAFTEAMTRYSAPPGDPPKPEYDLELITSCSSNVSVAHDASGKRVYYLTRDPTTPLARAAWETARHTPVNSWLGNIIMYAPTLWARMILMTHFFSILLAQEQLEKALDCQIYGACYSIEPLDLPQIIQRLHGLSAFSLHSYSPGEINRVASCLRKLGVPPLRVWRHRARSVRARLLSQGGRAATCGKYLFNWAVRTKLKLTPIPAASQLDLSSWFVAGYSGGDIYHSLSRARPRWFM", "assay": "HCV NS5B RdRp enzyme assay (standard / modified)", "assay_type": "biochemical", "settings": "HCV RdRp genotype 1b; standard or modified assay not specified; read-out: IC50", "procedure,_shortened": "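Genotype 1b NS5B, 18-aa C-terminal truncation, E. coli-expressed; polyA template with biotin-oligo-dT12 primer, 3H-UTP (0.29 μM UTP), pH 7.5 Hepes, 2% DMSO, 30 °C, SPA read. Standard: 28 nM enzyme, 6 nM template, 180 nM primer, 60 min. Modified: 1.75 nM enzyme, 0.36 nM template, 20 nM bead-precaptured primer, 4 h; IC50 from seven concentrations, four-parameter fit.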"}, "HCV replicon cells": {"tested_on": "HCV replicon cells", "assay": "HCV replicon FRET / luciferase assay", "assay_type": "cell-based", "settings": "50% reduction in FRET or luciferase activity in HCV replicon cells, read-out: EC50", "procedure,_shortened": "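HCV replicon cells (with or without Renilla luciferase reporter) incubated with titrated compounds at 37° C; cytotoxicity read by Alamar blue. Replicon activity then read by NS3 cleavage of EDANS/DABCYL FRET peptide (20 μM final, 340/490 nm kinetic) or by luciferase; background from highest control-inhibitor wells subtracted; EC50 = concentration giving 50% signal reduction.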"}}, "note": "pEC50, pIC50: −log10 of the molar value. Where two headings read alike, the source gives them in different places.", "data": [{"smiles": "COc1ccc2c(c1)[C@@H]1C[C@]1(C(=O)N1C[C@@H]3C[C@H]1CN3C(=O)OC(C)(C)C)Cn1c-2c(C2CCCCC2)c2ccc(C(=O)NS(=O)(=O)N(C)C)cc21", "values": [{"measurement": "pIC50", "setting": "HCV NS5B", "result": "6.30 to 8.62"}, {"measurement": "pEC50", "setting": "HCV replicon cells; Hepatitis C virus", "result": "6.30 to 8.62"}]}, {"smiles": "COc1ccc2c(c1)C1CC1(C(=O)N1C3CN(C)CC1CN(C(C)C)C3)Cn1c-2c(C2CCCCC2)c2ccc(C(=O)NS(=O)(=O)N(C)C)cc21", "note": "(stereo not shown)", "values": [{"measurement": "pIC50", "setting": "HCV NS5B", "result": "6.30 to 8.62"}, {"measurement": "pEC50", "setting": "HCV replicon cells; Hepatitis C virus", "result": "6.30 to 8.62"}]}, {"smiles": "COc1ccc2c(c1)C1CC1(C(=O)N1CCN3CCC1CC3)Cn1c-2c(C2CCCCC2)c2ccc(C(=O)NS(=O)(=O)N(C)C)cc21", "note": "(stereo not shown)", "values": [{"measurement": "pIC50", "setting": "HCV NS5B", "result": "6.30 to 8.62"}, {"measurement": "pEC50", "setting": "HCV replicon cells; Hepatitis C virus", "result": "6.30 to 8.62"}]}, {"smiles": "CCN1C[C@H]2C[C@@H]1CN2C(=O)C12CC1c1cc(OC)ccc1-c1c(C3CCCCC3)c3ccc(C(=O)NS(N)(=O)=O)cc3n1C2", "note": "(stereo partly shown)", "values": [{"measurement": "pIC50", "setting": "HCV NS5B", "result": "6.30 to 8.62"}, {"measurement": "pEC50", "setting": "HCV replicon cells; Hepatitis C virus", "result": "6.30 to 8.62"}]}, {"smiles": "CCS(=O)(=O)NC(=O)c1ccc2c(C3CCCCC3)c3n(c2c1)CC1(C(=O)N2C4CCCC2CN(C)C4)CC1c1cc(OC)ccc1-3", "note": "(stereo not shown)", "values": [{"measurement": "pIC50", "setting": "HCV NS5B", "result": "6.30 to 8.62"}, {"measurement": "pEC50", "setting": "HCV replicon cells; Hepatitis C virus", "result": "6.30 to 8.62"}]}, {"smiles": "COc1ccc2c(c1)C1CC1(C(=O)N1C3COCC1CN(C(C)C)C3)Cn1c-2c(C2CCCCC2)c2ccc(C(=O)NS(=O)(=O)N(C)C)cc21", "note": "(stereo not shown)", "values": [{"measurement": "pIC50", "setting": "HCV NS5B", "result": "6.30 to 8.62"}, {"measurement": "pEC50", "setting": "HCV replicon cells; Hepatitis C virus", "result": "6.30 to 8.62"}]}, {"smiles": "COc1ccc2c(c1)C1CC1(C(=O)N1CC3CN(C)CC(C1)N3C)Cn1c-2c(C2CCCCC2)c2ccc(C(=O)NS(=O)(=O)N(C)C)cc21", "note": "(stereo not shown)", "values": [{"measurement": "pIC50", "setting": "HCV NS5B", "result": "6.30 to 8.62"}, {"measurement": "pEC50", "setting": "HCV replicon cells; Hepatitis C virus", "result": "6.30 to 8.62"}]}, {"smiles": "COc1ccc2c(c1)C1CC1(C(=O)N1C[C@@H]3C[C@H]1CN3CC(C)C)Cn1c-2c(C2CCCCC2)c2ccc(C(=O)NS(=O)(=O)C(C)C)cc21", "note": "(stereo partly shown) [drawing 95]", "values": [{"measurement": "pIC50", "setting": "HCV NS5B", "result": "6.30 to 8.62"}, {"measurement": "pEC50", "setting": "HCV replicon cells", "result": "6.30 to 8.62"}]}]}
